{"source": "patent EP0155623A2", "about": "“Use of lipoxygenase inhibitors for the preparations of cytoprotective pharmaceutical compostions and process for the preparation of a cytoprotective pharmaceutical composition” (Merck & Co., Inc., priority 1984, dated 1985)", "tested_on": "ulcers in 24 hr. fasted S.D. rats", "assay": "Indomethacin-Induced Ulcer Assay (assay B)", "format": "in vivo", "settings": "15 min prior to indomethacin 10 mg/kg p.o., stomach mucosae examined 4 hours later", "experimental": "B. Indomethacin-Induced Ulcer Assay\nIndomethacin, 10 mg/kg p.o., is used to induce ulcers in 24 hr. fasted S.D. rats. Fifteen minutes prior to indomethacin administration, groups of rats each receive either an aqueous vehicle (5% wt. methylcellulose) or the test compound at various doses perorally. Four hours later the animals are sacrificed and stomach-mucosae are examined for resulting ulcers.\nFollowing the procedure of assay B (Indomethacin-Induced Ulcer Assay), 4-bromo-2,7-dimethoxy-3H-phenothiazin-3-one was tested for ulcer inhibition. For Table 49-1, % Inhibition was calculated as: [formula]"}
{"smiles": "COc1ccc2nc3cc(OC)c(=O)c(Br)c-3sc2c1", "note": "[4-Bromo-2,7-dimethoxy-3H-phenothiazin-3-one]", "values": [{"measurement": "% Inhibition", "setting": "Dose 0.003 mg/kg perorally", "value": 38, "unit": "%"}, {"measurement": "% Inhibition", "setting": "Dose 0.01 mg/kg perorally", "value": 56, "unit": "%"}, {"measurement": "% Inhibition", "setting": "Dose 0.03 mg/kg perorally", "value": 69, "unit": "%"}, {"measurement": "% Inhibition", "setting": "Dose 0.1 mg/kg perorally", "value": 66, "unit": "%"}, {"measurement": "% Inhibition", "setting": "Dose 0.3 mg/kg perorally", "value": 70, "unit": "%"}, {"measurement": "% Inhibition", "setting": "Dose 3.0 mg/kg perorally", "value": 87, "unit": "%"}]}
